Measurements published in paper PMC8571052 (ChemMedChem, 2021).

How the values were obtained:
Type in all cases: cell-based, human
MDA-MB-231 [1] = test: PrestoBlue cell viability assay, MDA-MB-231; settings: for IC50: MDA-MB-231, 24 h incubation, PrestoBlue
MDA-MB-468 = test: PrestoBlue cell viability assay, MDA-MB-468; settings: MDA-MB-468, 24 h incubation
HCC-1806 [2] = test: PrestoBlue cell viability assay, HCC-1806; settings: for IC50: HCC-1806, 24 h incubation, PrestoBlue
MCF10a = test: PrestoBlue cell viability assay, non-malignant breast cells MCF10a; settings: 24 h incubation
IMR90 = test: PrestoBlue cell viability assay, lung fibroblasts IMR90; settings: IMR90, 24 h incubation
MDA-MB-231 [3] = test: Cell death assay; settings: MDA-MB-231, IC50 concentration, 24 h, Annexin V/PI
HCC-1806 [4] = test: Cell death assay; settings: HCC-1806, IC50 concentration, 24 h, Annexin V/PI
MDA-MB-231 [5] = test: Cell cycle profile; settings: MDA-MB-231, IC20 concentration, 24 h; non-treated cells 16%
HCC-1806 [6] = test: Cell migration, 2D wound-healing scratch assay, HCC-1806; settings: 24 h
MDA-MB-231 [7] = test: Cell invasion, 3D Transwell assay with Geltrex matrix, MDA-MB-231; settings: MDA-MB-231, IC20 concentration, 24 h
HCC-1806 [8] = test: Cell invasion, 3D Transwell assay with Geltrex matrix, HCC-1806; settings: 24 h
HUVEC [9] = test: IC10 concentration in HUVEC cells
HUVEC [10] = test: Endothelial tube formation assay; settings: IC10 concentration

Row | SMILES | IC50 (MDA-MB-231 [1]) [µM] | IC50 (MDA-MB-468) [µM] | IC50 (HCC-1806 [2]) [µM] | IC50 (MCF10a) [µM] | IC50 (IMR90) [µM] | IC20 (MDA-MB-231 [1]; read-out: IC20 values employed, MDA-MB-231 (same value for both cell lines)) [µM] | IC20 (HCC-1806 [2]; read-out: IC20 values employed, HCC-1806 (same value for both cell lines)) [µM] | cells that die by apoptosis (MDA-MB-231 [3]) [%] | apoptosis (HCC-1806 [4]) [%] | cells in G2/M arrest (MDA-MB-231 [5]) [%] | reduction of migration (HCC-1806 [6]; HCC-1806, IC20 concentration) [%] | decrease in antimigratory properties in HCC-1806 with respect to MDA-MB-231 (HCC-1806 [6]; IC20 concentration) | invasion reduction (MDA-MB-231 [7]) [%] | invasion reduction (HCC-1806 [8]; HCC-1806, IC20 concentration) [%] | reduction of the antiinvasive properties in HCC-1806 with respect to MDA-MB-231 (HCC-1806 [8]; IC20 concentration) [%] | IC10 concentration (HUVEC [9]) [µM] | disruption in tube length (TL) (HUVEC [10]) [%] | disruption of tube length (first statement) (HUVEC [10]) [%]
1 | N.N.[Cl][Pt][Cl] [cisplatin] | 132 ± 18 | 44.2 ± 2.1 | 163 ± 5.86 | 32.9 ± 6.68 | 149 ± 13.1 | – | – | – | – | – | – | – | – | – | – | – | – | –
2 | Cc1ccc(C(C)C)cc1.[Cl][Ru]([Cl])[PH]12CN3CN(CN(C3)C1)C2 [RAPTA-C, [Ru(η^6-p-cymene)Cl2(1,3,5-triaza-7-phosphaadamantane])] | > 300 | > 300 | > 300 | > 300 | > 300 | 250 | 250 | 30.8 | 27.25 | 23 | 42.7 | ca. 17.6% | 66.9 | 41.2 | 25.7 | 150 | 22 | 27
